From patent US20170231911A1, “METHODS AND COMPOSITIONS FOR IMPROVING OUTCOMES OF LIPOSOMAL CHEMOTHERAPY” (Merrimack Pharmaceuticals, Inc., priority 2013, published 2017) come the findings set out here.

Data set [1] concerns BT474-M3 breast cancer tumor cells. Particulars: cyclophosphamide 170 mg/kg pre-dose.
Procedure: NCR/nu mice are inoculated with 15×10^6 BT474-M3 cells (into the mammary fat pad, in 50 μl media), 20×10^6 MDA-MB-453 (s.c. into the right flank of the mouse in 100 μl of media) or 10×10^6 MCF-7 HER2 cells (into the mammary fat pad, in 50 μl media). […] When tumors reached an average volume of 200-300 mm^3, mice are pre-dosed or not with cyclophosphamide (i.p. 170 mg/kg) at different time points as indicated. Mice are subsequently dosed with DiI5-labeled anthracycline-loaded anti-HER2 immunoliposome-targeted liposomal doxorubicin (3 mg/kg), DiI5-labelled liposomal doxorubicin PLD (3 mg/kg), or free doxorubicin all at (3 mg/kg). […]
Tumor, heart and the dorsal skin are collected and frozen at −80° for further HPLC doxorubicin quantification.
Tumors, hearts and dorsal skin are weighed and minced. […] Supernatants and doxorubicin standards are analyzed by HPLC (Dionex) using a C18 reverse phase column (Synergi Polar-RP 80A 250×4.60 mm 4 μm column). […] The doxorubicin peak is detected at 6.9 min using an in-line fluorescence detector excited at 485 nm, and emitting at 590 nm. The extraction efficiency of doxorubicin from tumor, heart and skin tissues is estimated using internal control tissues spiked with known amounts of doxorubicin, and sample readings are corrected to account for the extraction efficiency. […]
Setting [2] is: 96 hours after cyclophosphamide treatment.

Procedure for BT474-M3 tumor: Slides are air-dried and mounted with ProLong® Gold with Hoechst® stain to counterstain nuclei. Cleaved caspase 3, γ-H2AX, cleaved PARP and cytokeratin stainings are performed on FFPE-sections (5 μm thick). After deparaffinization and rehydration, heat-mediated antigen retrieval is performed on a in a pre-treatment module (Thermo Scientific, Waltham, Mass.) in citrate buffer (pH 6) for 25 min at 102° C. After antigen retrieval, slides are stained on a Lab Vision Autostainer® 360 (Thermo Scientific). Endogenous peroxidase activity is blocked with Peroxidazed® 1 (10 min at RT) followed by a washing step with TBST and a protein blocking step with Background Sniper (10 min at RT). Next, slides are incubated with the primary antibodies diluted in Da Vinci Green or Signal Stain® Antibody diluent for 1 hr at room temperature (RT). After washing, slides are incubated with secondary antibodies for 30 min at RT Antibodies used are goat anti-mouse Alexa Fluor® 488 and goat anti-rabbit Alexa Fluor® 647, diluted in Da Vinci Green, for the γ-H2AX and cleaved caspase 3 antibodies, respectively; and EnVision®+ System-HRP labeled Polymer anti-rabbit (for the signal amplification of the cleaved PARP signal) containing the secondary antibody for cytokeratin (goat anti-mouse Alexa Fluor® 555) for the cleaved PARP and cytokeratin double staining. After washing, for the signal amplification of cleaved PARP, samples are incubated with TSA™ Cyanine 5 Tyramide Reagent for 10 min at RT. Slides are washed and counterstained with Hoechst followed by a wash step and mounting with ProLong® Gold. Slides are imaged on an Aperio® FL slide scanner at 20× magnification.
Images are analyzed using rulesets written in Definiens® Developer XD 2 (Definiens, Munich, Germany). Images are analyzed as full tumor or heart tissues. […]
The extent of cleaved PARP positive tumor cells is determined in cleaved PARP and cytokeratin double stained tumor sections. […]

Take `O.O=P1(N(CCCl)CCCl)NCCCO1` (stereo not shown) [cyclophosphamide, 2-[bis(2-chloroethyl)amino]tetrahydro-2H-1,3,2-oxazaphosphorine 2-oxide monohydrate]: in data set [1], the “effect of cyclophosphamide on non-target organs such as skin or heart” value is reported as “no effects were observed”. In addition, in the data set with BT474-M3 tumor (setting [2]), the “effect on non-tumor cells” value was “non-tumor cells were unaffected” and the “interstitial space vs control” value is recorded as “significantly more interstitial space than the control cell sample”. The “tumor cell apoptosis, tumor cell density and interstitial space” value with BT474-M3 tumor (tissue harvested 48 hr-120 hr post cyclophosphamide) is “induction of tumor cell apoptosis and consequent reduction of tumor cell density and increase in interstitial space”.
